Paper doi:10.1101/2024.09.11.612517v1 (bioRxiv, 2024)
Square brackets hold non-standard residues; d marks the D form. Peptide text beside a SMILES is read from it.

Experiments:
[1] = system: VEGF-induced retinal vascular permeability; assay type: in vivo, Wistar rats; conditions: rats, single 0.5% eye drop at different times before intravitreal VEGF
[2] = Ocular pharmacokinetics after one eye drop, rats; assay type: in vivo, Wistar rats; conditions: 3 hours post-dose
[3] = Ocular pharmacokinetics after one eye drop, rabbits; assay type: in vivo, New Zealand white rabbits
[4] = NZ rabbits, single eyedrop of 0.5%, mean ± SEM, N = 3 eyes per timepoint, SEM
[5] = rabbits, single 0.5% eye drop, 24 hours

Concentration in the vitreous (molar) [2]: ~0.391 µM
AUC0-24h, Retina-Choroid [3, 4]: 467,434 ± 45,884 hours × ng g^-1
AUC0-24h, Vitreous [3, 4]: 1,678 ± 182 hours × ng mL^-1
Cmax, Retina-Choroid [3, 4]: 51,693.81 ± 6678.9 ng g^-1
Retina-choroid exposure at 24 hours above IC50 ([3]; rabbits, 24 hours, vs IC50 for endothelial permeability): > 4 orders of magnitude
Cmax in retina-choroid (molar) ([3]; rabbits, single 0.5% eye drop): ~67 µM
Retina/choroid Cmax above IC50 (137.3 pM) ([3]; rabbits, single 0.5% eye drop): 5 orders of magnitude
Cmax in retina-choroid ([3]; rabbits, single 0.5% eye drop (50 µL), HUVEC bioactivity read-out): 52 µg/g
Exposure in retina-choroid after 24 hours [3, 5]: 3.5 µg/g
Exposure in retina-choroid after 24 hours (molar) [3, 5]: ~4.64 µM
Exposure in vitreous after 24 hours [3, 5]: 10.6 ng/mL
Exposure in vitreous after 24 hours (molar) [3, 5]: ~13.88 nM
Time for which high retina-choroid levels lasted ([3]; rabbits, single topical instillation of 0.5%): 24 h
SMILES: CC[C@@H](C)[C@H]1NC(=O)[C@@H]([C@H](C)O)NC(=O)[C@@H](Cc2c[nH]cn2)NC(=O)CNC(=O)[C@@H](CCCNC(=N)N)NC(=O)CNC(=O)[C@@H](Cc2ccccc2)NC1=O [VIAN-c4551] (cyclo([dI][dF]G[dR]G[dH][dT]))
Duration of protective effect against VEGF challenge after the eye drop [1]: 24 h
